# System: Apteronotus leptorhynchus
# Assay: Neuro-behavioral assay: effect on EOD frequency
# Format: in vivo
# Settings: for EOD frequency lower than median baseline frequency immediately after return to isolation tank (range among fish): 2.5% urethane or 0.02% MS-222 immersion until fin and opercular movement ceased; for EOD frequency lower than median baseline frequency immediately after return to isolation tank (range among fish) / EOD frequency lower than median baseline frequency immediately after return to isolation tank (median) / Median EOD frequency change, 30-min interval before vs 15-min interval after start of anesthesia: Median: n=8 fish; for EOD frequency lower than median baseline frequency immediately after return to isolation tank (median): 2.5% urethane or 0.02% MS-222 immersion; for Recovery model parameter a (ratio EOD frequency vs baseline at t=0), estimate / Recovery model parameter b, estimate / Recovery model parameter c, estimate / Recovery model parameter d, estimate: robust nonlinear regression, Equation 1, 2.5% urethane or 0.02% MS-222; for Recovery model (Eq. 3) parameter a: normalized frequency
# Description: For the assay, adult brown ghost knifefish (Apteronotus leptorhynchus; Gymnotiformes, Teleostei), with total lengths of approximately 12-15 cm, are used. The fish are imported from their natural habitat in South and Central America.
# At least 1 week before using the assay for the first run, the fish is transferred from a community tank to an isolation tank (50 cm×30 cm×30 cm) equipped with aquarium thermostat heaters and air-driven corner filters. The fish is kept in aquarium water prepared by adding a mixture of inorganic salts (81 mmol/L MgSO4·7H2O; 107 mmol/L KCl; 12 mmol/L NaH2PO4·2H2O; 732 mmol/L CaSO4·2H2O) to deionized water until a water conductivity of approximately 150-300 μS/cm is reached. Water temperature, determined during the experiments every 10 min with a calibrated high-precision (accuracy+0.05° C.) digital thermometer, is kept in the range of 25.0-28.0° C. across all assays. Variation is limited to 1.0° C. in an individual assay. A 12:12 h light:dark photoperiod is maintained with a timer. The fish are fed red mosquito larvae daily, after the assay run on that day has been completed.
# In each isolation tank, an opaque cylindrical plastic tube (length: 190 mm; inner diameter: 38 mm; outer diameter: 42 mm) provides shelter and is readily accepted by the fish, particularly during the light phase, when individuals of this nocturnal species spend most of the time in shelter places. A pair of stainless-steel electrodes is mounted on the inside of each tube (see section 4.1.2, ‘EOD recording,’ below).
# Differential recording of the fish's EOD is done through the pair of stainless-steel electrodes built into the shelter tube (FIG. 1). […] This allows the fish's EOD to be recorded continuously without interruptions. At the same time, mesh size is chosen such that sustained water flow through the tube is ensured. A strip of stainless steel is placed in the tank to serve as a ground electrode.
# The signal is AC amplified (gain: 30×; low-pass filter: none; high-pass filter: 200 Hz) and then digitized at a sampling rate of 50 kHz.
# The sampled time-voltage data (ti, vi), i=1, . . . , N, are filtered in subsequent, 1-s-long windows using a bandpass filter with frequency band [0.8, 1.2]×f0, where f0 is the fundamental frequency determined from the power spectrum of the signal within the associated time window.
# The filtered time series data (ti, Vi), i=1, . . . , N, are further processed to determine the EOD frequency at a higher time resolution. First, tuple j containing the indices of all instants where the filtered signal changes sign to a positive value is determined:
# Then, tuple t^+ of time instances when the signal crosses the time axis upwards is calculated using interpolation:
# Here M=|j| denotes the number of elements in j (the number of all crossings). Finally, time-frequency pairs (Tk, fk) are computed as
# for k=1, . . . , M−m. Here m=10 is the number of averaged time periods used for EOD frequency calculation.
# Since the EOD frequency of A. leptorhynchus is temperature dependent, all measured frequencies are adjusted to a reference temperature (arbitrarily chosen to be 26° C.) so that discharge frequencies at different water temperatures can be compared. This adjustment of a frequency f1 (in Hz) measured at a temperature T1 (in ° C.) to the reference temperature T2=26° C. is calculated as
# where f2 is the expected frequency at T2 and Q10=1.56, as determined empirically.
# The experimental design is outlined in FIG. 2. To determine the baseline EOD frequency, the fish's EOD was recorded for 30 min. Then, the fish was transferred into a glass beaker containing either 2.5% urethane (Acros Organics, New Jersey, USA) or 0.02% MS-222 (Western Chemical, Washington, USA), each dissolved in water from the fish's isolation tank. As a control, the fish was moved into an identical glass beaker containing aquarium water only. […]
structure (smiles),measurement,setting,value
"CCOC(=O)c1cccc(N)c1 [MS-222, 3-aminobenzoic acid ethyl ester methanesulfonate]",EOD frequency lower than median baseline frequency immediately after return to isolation tank (range among fish),,129-279 Hz
same,EOD frequency lower than median baseline frequency immediately after return to isolation tank (median),,168 Hz
same,"Recovery model parameter a (ratio EOD frequency vs baseline at t=0), estimate",8 fish,0.3584 1
same,"Recovery model parameter b, estimate",8 fish,0.52 min
same,"Recovery model parameter c, estimate",8 fish,1.0024
same,"Recovery model parameter d, estimate",8 fish,-9.0311e-06 min⁻¹
CCOC(N)=O [urethane],EOD frequency lower than median baseline frequency immediately after return to isolation tank (range among fish),,104-142 Hz
same,EOD frequency lower than median baseline frequency immediately after return to isolation tank (median),,133 Hz
same,EOD frequency drop during first phase of anesthesia,"2.5% urethane, first phase lasting roughly 30 s",approximately 100 Hz
same,"Recovery model parameter a (ratio EOD frequency vs baseline at t=0), estimate",8 fish,0.8428 1
same,"Recovery model parameter b, estimate",8 fish,21.333 min
same,"Recovery model parameter c, estimate",8 fish,1.0228
same,"Recovery model parameter d, estimate",8 fish,-2.8717e-05 min⁻¹
C=CCc1ccc(O)c(OC)c1 [eugenol],Maximum EOD frequency drop vs median baseline frequency (median),"60 μL/L eugenol, 5 min, 8 fish",232 Hz
same,Maximum EOD frequency drop vs median baseline frequency (range),"60 μL/L eugenol, 5 min, 8 fish",184-277 Hz
same,Latency until fish started to lower the EOD frequency after transfer into the anesthetic solution,eugenol 30-60 μL/L,1 to 2 min
same,Recovery model (Eq. 3) parameter b,eugenol 30 μL/L,1.4568 min
same,Recovery model (Eq. 3) parameter c,eugenol 30 μL/L,1.0089
same,Recovery model (Eq. 3) parameter d,eugenol 30 μL/L,-3.2299e-05 min⁻¹
same,Difference in the largest normalized EOD frequency drops: Median,eugenol 30 μL/L vs. Control,−0.1650
same,"Median EOD frequency change, 30-min interval before vs 15-min interval after start of anesthesia: Median","eugenol 30 μL/L, 5 min",−48.18 Hz
same,Recovery model (Eq. 3) parameter a,eugenol 30 μL/L,0.7465 1
same,Recovery model (Eq. 3) parameter b,eugenol 45 μL/L,1.4064 min
same,Recovery model (Eq. 3) parameter c,eugenol 45 μL/L,1.0084
same,Recovery model (Eq. 3) parameter d,eugenol 45 μL/L,-3.3821e-05 min⁻¹
same,Difference in the largest normalized EOD frequency drops: Median,eugenol 45 μL/L vs. 30 μL/L,−0.0715
same,"Median EOD frequency change, 30-min interval before vs 15-min interval after start of anesthesia: Median","eugenol 45 μL/L, 5 min",−65.54 Hz
same,Recovery model (Eq. 3) parameter a,eugenol 45 μL/L,0.6344 1
same,Recovery model (Eq. 3) parameter b,eugenol 60 μL/L,1.5816 min
same,Recovery model (Eq. 3) parameter c,eugenol 60 μL/L,1.0131
same,Recovery model (Eq. 3) parameter d,eugenol 60 μL/L,-6.2321e-05 min⁻¹
same,Difference in the largest normalized EOD frequency drops: Median,eugenol 60 μL/L vs. 45 μL/L,−0.0349
same,"Median EOD frequency change, 30-min interval before vs 15-min interval after start of anesthesia: Median","eugenol 60 μL/L, 5 min",−88.65 Hz
same,Recovery model (Eq. 3) parameter a,eugenol 60 μL/L,0.5649 1

# — patent publication US20240207454A1, “NEURO-BEHAVIORAL ASSAY FOR PHYSIOLOGICAL EVALUATION OF WATER-SOLUBLE ANESTHETICS” (Northeastern University, priority 2022, published 2024)
